Data published in patent US8980906B2, “Pyridonemorphinan analogs and biological activity on opioid receptors” (Purdue Pharma L.P., priority 2012, dated 2015).

Assays:
[1] = molecular target: T1, δ-opioid receptor (Homo sapiens (Human), UniProt P41143); test: δ-opioid receptor radioligand dose-displacement binding assay ([3H]-Naltrindole); conditions: binding affinity, [3H]-Naltrindole displacement
Procedure: δ-Opioid Receptor Binding Assay Procedures: δ-Opioid Receptor Binding Assay Procedures were conducted as follows. Radioligand dose-displacement assays used 0.2 nM [^3H]-Naltrindole (Perkin Elmer, Shelton, Conn.; 33.0 Ci/mmole) with 5 μg membrane protein (Perkin Elmer, Shelton, Conn.) in a final volume of 500 μl binding buffer (5 mM MgCl2, 5% DMSO, 50 mM Trizma base, pH 7.4). Non-specific binding was determined in the presence of 25 μM unlabeled naloxone. All reactions were performed in 96-deep well polypropylene plates for 1 hour at a temperature of about 25° C. Binding reactions were terminated by rapid filtration onto 96-well Unifilter GF/C filter plates (Perkin Elmer, Shelton, Conn.) presoaked in 0.5% polyethylenimine (Sigma). Harvesting was performed using a 96-well tissue harvester (Perkin Elmer, Shelton, Conn.) followed by five filtration washes with 500 μl ice-cold binding buffer. Filter plates were subsequently dried at 50° C. for 1-2 hours. Fifty μl/well scintillation cocktail (Perkin Elmer, Shelton, Conn.) was added and plates were counted in a Packard Top-Count for 1 min/well.

[2] = molecular target: T1, δ-opioid receptor; test: δ-opioid receptor [35S]GTPγS functional assay, HEK-293 or CHO cells; type: biochemical
Procedure: δ-Opioid Receptor Functional Assay Procedures: Functional [^35S]GTPγS binding assays were conducted as follows. δ-Opioid receptor membrane solution was prepared by sequentially adding final concentrations of 0.026 μg/μl δ membrane protein (Perkin Elmer, Shelton, Conn.), 10 μg/mL saponin, 3 μM GDP and 0.20 nM [^35S]GTPγS to binding buffer (100 mM NaCl, 10 mM MgCl2, 20 mM HEPES, pH 7.4) on ice. The prepared membrane solution (190 μl/well) was transferred to 96-shallow well polypropylene plates containing 10 μl of 20× concentrated stock solutions of agonist prepared in DMSO. Plates were incubated for 30 min at a temperature of about 25° C. with shaking. Reactions were terminated by rapid filtration onto 96-well Unifilter GF/B filter plates (Perkin Elmer, Shelton, Conn.) using a 96-well tissue harvester (Packard) and followed by three filtration washes with 200 μl ice-cold binding buffer (10 mM NaH2PO4, 10 mM Na2HPO4, pH 7.4). Filter plates were subsequently dried at 50° C. for 1-2 hours. Fifty μl/well scintillation cocktail (Perkin Elmer, Shelton, Conn.) was added and plates were counted in a Packard Top-count for 1 min/well.
δ-Opioid Receptor Functional Data: δ GTP EC50 is the concentration of a compound providing 50% of the maximal response for the compound at a δ receptor.
δ GTP Emax (%) is the maximal effect elicited by a compound relative to the effect elicited by met-enkephalin.
In TABLE 2, activity response of certain Compounds of the Invention to the μ-, δ- and κ-opioid receptors was determined as described above for functional assays using HEK-293 or CHO cells.

[3] = molecular target: μ-opioid receptor (Homo sapiens (Human), UniProt P35372); test: μ-opioid receptor [35S]GTPγS functional assay, HEK-293 or CHO cells; type: biochemical

T1 sequence (P41143 whole entry, looked up): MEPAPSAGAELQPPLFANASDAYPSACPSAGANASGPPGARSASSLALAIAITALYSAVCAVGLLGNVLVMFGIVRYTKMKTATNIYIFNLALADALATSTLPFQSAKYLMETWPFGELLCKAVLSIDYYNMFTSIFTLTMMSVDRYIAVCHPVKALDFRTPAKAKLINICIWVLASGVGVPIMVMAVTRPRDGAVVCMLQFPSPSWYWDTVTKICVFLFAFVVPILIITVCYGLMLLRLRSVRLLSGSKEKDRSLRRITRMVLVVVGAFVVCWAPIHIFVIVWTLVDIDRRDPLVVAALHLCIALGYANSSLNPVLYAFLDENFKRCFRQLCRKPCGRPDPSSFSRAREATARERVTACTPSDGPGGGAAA

SMILES	Ki [1] [nM]	EC50 [2] [nM]	EC50 [3] [nM]	Emax ([2]; relative to met-enkephalin, HEK-293 or CHO cells) [%]
O=C(O)c1cc2c([nH]c1=O)C[C@]13CCN(CC4CC4)[C@H](Cc4ccc(O)cc41)[C@]3(O)C2 [Compound 9, (6R,6aS,12aR)-15-(cyclopropylmethyl)-2,6a-dihydroxy-10-oxo-6,6a,7,10,11,12-hexahydro-5H-6,12a-(epiminoethano)naphtho[2,1-g]quinoline-9-carboxylic acid]	18.5 ± 2.14	> 20000	> 20000	
O=C(O)c1cc2c([nH]c1=O)C[C@]13CCN(CC4CC4)[C@H](Cc4ccc(O)cc41)[C@@H]3C2 [Compound 11, (6R,6aR,12aS)-15-(cyclopropylmethyl)-2-hydroxy-10-oxo-6,6a,7,10,11,12-hexahydro-5H-6,12a-(epiminoethano)naphtho[2,1-g]quinoline-9-carboxylic acid]		3.53 ± 1.5	> 20000	36 ± 3.21
NC(=O)c1cc2c([nH]c1=O)C[C@]13CCN(CC4CC4)[C@H](Cc4ccc(O)cc41)[C@]3(O)C2 [Compound 5, (6R,6aS,12aR)-15-(cyclopropylmethyl)-2,6a-dihydroxy-10-oxo-6,6a,7,10,11,12-hexahydro-5H-6,12a-(epiminoethano)naphtho[2,1-g]quinoline-9-carboxamide]	26.4 ± 7.23	> 20000	> 20000	
